This is an account of results in patent US20020002171A1, “Materials and methods for killing nematodes and nematode eggs” (priority 2000, published 2002).

SMILES strings stand for the structures.

The subject of one assay is Caenorhabditis elegans. The assay is described as follows: C. elegans L1 nematicidal dose response in 96-well plates, 5 day visual score (Example 2; same procedure for Example 7, Table 3). Type of assay: in vivo. Particulars: 0.3 μM, C. elegans L1, scored day 5. On the set-up: key to 5 Day Visual Score V1 / 5 Day Visual Score V2 / 5 Day Visual Score V3 / 5 Day Visual Score V4 / 5 Day Visual Score V6 / 5 Day Visual Score V5 / Initial HTS Run Visual Score / Follow-up HTS Run Visual Score: Dead: only stiff L1s (no movement); Dead (L4): worms are dead, but at a later larval stage; majority of worms are L1 (based on size) worms move when plate is tapped; majority of worms are L2 (based on size); majority of worms are L3 (based on size); majority of worms are L4 (based on size); AD: majority of worms are adult; #AD: 5 adult worms or less; B!: sterile (0-25 progeny); B: low broodsize (25-100 progeny); ˜B: moderate broodsize (100-250 progeny); <: reduced broodsize (250-500 progeny); OK: no effect (˜1000+ progeny). The protocol:
Caenorhabditis elegans adults were grown on Nematode Growth Medium (NGM) until they produced eggs, then the adults were removed.
The eggs were allowed to hatch, and the L1 larvae collected. See The Nematode Caenorhabditis elegans (1988) Cold Spring Harbor Laboratory Press. Using a Matrix Programmable Pipette, the L1s were distributed into 96-well tissue culture plates, 20 L1 in 50 μl NGM per well. Antibiotic/Antimyoticwas added to each well, and 1% by weight E. coli strain HB101. The subject anthelmintic compounds were stored at 5 mM in 100% DMSO. 0.7 μl of compounds 1-31 were added to the left-most column of wells to yield a final concentration of 70 μM in 1.4% DMSO, with 1.4% DMSO only as the control. The compounds were then subjected to 5 more 3-fold dilutions from left to right to yield 6 column concentrations of 70 μM, 23.3 μM, 7.8 μM, 2.6 μM, 0.9 μM, and 0.3 μM. Plates were stored in air-tight Rubbermaid plastic boxes at 20° C. The nematodes had cleared all control wells by day 4, and nematode viability was scored by visual examination under a 100× dissecting microsope on day 5. A visual viability scoring system was used as follows:
Column V1 has a compound concentration of 70 μM with sequential 3-fold dilutions reported in columns V2, V3, V4, V5, and V6, respectively, such that the V6 concentration was 0.3 μM.
The nematicidal activity of anthelmintic Compositions 48-168 were determined in accordance with the procedure outlined in Example 2.
On to `CCCc1ccc(C(CC(=O)c2ccc(C)cc2)Nc2ccc(-c3ccccc3)cc2)cc1` (centres unmarked) [AKC 133], for which the “5 Day Visual Score V6” value is reported as “Dead”.

Turning to `Fc1ccc(N2CCN(c3nc(NCCC(c4ccccc4)c4ccccc4)ns3)CC2)cc1` [AKC 134], the “5 Day Visual Score V6” value is “OK (no effect (˜1000+ progeny))”.

The assay is the same for the next values; noted with them: 0.9 μM, C. elegans L1, scored day 5.
For the compound `CCCc1ccc(C(CC(=O)c2ccc(C)cc2)Nc2ccc(-c3ccccc3)cc2)cc1` (centres unmarked) [AKC 133], the “5 Day Visual Score V5” value is recorded as “Dead”.

`Fc1ccc(N2CCN(c3nc(NCc4ccc(C(F)(F)F)cc4)ns3)CC2)cc1` [AKC 135]: the “5 Day Visual Score V5” value is listed as “˜B (moderate broodsize (100-250 progeny))”.

In the case of `CCCCCCCCS(=O)(=O)N1CCN(C(=O)C=Cc2cccc(C(F)(F)F)c2)CC1C(=O)NCc1ccc(C(F)(F)F)cc1` (centres unmarked) [AKC 171], the “5 Day Visual Score V5” value was “< (reduced broodsize (250-500 progeny))”.

Still in this assay, the particulars now being: 2.6 μM, C. elegans L1, scored day 5.
`CCCc1ccc(C(CC(=O)c2ccc(C)cc2)Nc2ccc(-c3ccccc3)cc2)cc1` (centres unmarked) [AKC 133]: the “5 Day Visual Score V4” value is recorded as “Dead”.

Still in this assay, the particulars now being: 7.8 μM, C. elegans L1, scored day 5.
In the case of `CCCc1ccc(C(CC(=O)c2ccc(C)cc2)Nc2ccc(-c3ccccc3)cc2)cc1` (centres unmarked) [AKC 133], the “5 Day Visual Score V3” value was “Dead”.

Take `Fc1ccc(N2CCN(c3nc(NCCC(c4ccccc4)c4ccccc4)ns3)CC2)cc1` [AKC 134]: the “5 Day Visual Score V3” value is “Dead”.

For `CCCCCCCCS(=O)(=O)N1CCN(C(=O)C=Cc2cccc(C(F)(F)F)c2)CC1C(=O)NCc1ccc(C(F)(F)F)cc1` (centres unmarked) [AKC 171], the “5 Day Visual Score V3” value was “Dead(L4)/#A”.

Still in this assay, the particulars now being: 23.3 μM, C. elegans L1, scored day 5.
As to `CCCc1ccc(C(CC(=O)c2ccc(C)cc2)Nc2ccc(-c3ccccc3)cc2)cc1` (centres unmarked) [AKC 133], the “5 Day Visual Score V2” value is “Dead”.

In the case of `Fc1ccc(N2CCN(c3nc(NCCC(c4ccccc4)c4ccccc4)ns3)CC2)cc1` [AKC 134], the “5 Day Visual Score V2” value is given as “Dead”.

On to `Fc1ccc(N2CCN(c3nc(NCc4ccc(C(F)(F)F)cc4)ns3)CC2)cc1` [AKC 135], for which the “5 Day Visual Score V2” value was “L1”.

Take `CCCCCCCCS(=O)(=O)N1CCN(C(=O)C=Cc2cccc(C(F)(F)F)c2)CC1C(=O)NCc1ccc(C(F)(F)F)cc1` (centres unmarked) [AKC 171]: the “5 Day Visual Score V2” value is “L2”.

Regarding `CCC1CCCCN1c1cc(Oc2ccc3oc4ccccc4c3c2)ncn1` (centres unmarked) [AKC 340], the “5 Day Visual Score V2” value was “L1”.

For the compound `O=C(NCCc1ccccc1F)C1C(c2ccc(F)cc2)=NOC1c1ccc(-c2ccccc2)cc1` (centres unmarked) [AKC 2153], the “5 Day Visual Score V2” value was “L1”.

Still in this assay, the particulars now being: 70 μM, C. elegans L1, scored day 5.
In the case of `CCCc1ccc(C(CC(=O)c2ccc(C)cc2)Nc2ccc(-c3ccccc3)cc2)cc1` (centres unmarked) [AKC 133], the “5 Day Visual Score V1” value is given as “Dead”.

With `Fc1ccc(N2CCN(c3nc(NCCC(c4ccccc4)c4ccccc4)ns3)CC2)cc1` [AKC 134], the “5 Day Visual Score V1” value is “Dead”.

On to `Fc1ccc(N2CCN(c3nc(NCc4ccc(C(F)(F)F)cc4)ns3)CC2)cc1` [AKC 135], for which the “5 Day Visual Score V1” value is “Dead”.

As for `CCCCCCCCS(=O)(=O)N1CCN(C(=O)C=Cc2cccc(C(F)(F)F)c2)CC1C(=O)NCc1ccc(C(F)(F)F)cc1` (centres unmarked) [AKC 171], the “5 Day Visual Score V1” value is “Dead”.

With `CCC1CCCCN1c1cc(Oc2ccc3oc4ccccc4c3c2)ncn1` (centres unmarked) [AKC 340], the “5 Day Visual Score V1” value is reported as “L1”.

In the case of `O=C(NCCc1ccccc1F)C1C(c2ccc(F)cc2)=NOC1c1ccc(-c2ccccc2)cc1` (centres unmarked) [AKC 2153], the “5 Day Visual Score V1” value is listed as “L1”.

The same assay, now with this note: Follow-up HTS run.
Regarding `CN(Cc1ccccc1)c1nc(NCc2ccccc2)ns1` [AKC 328], the “Follow-up HTS Run % Run” value is 101% and the “Follow-up HTS Run mOD” value is listed as 163 mOD.

Take `CN(CCc1ccccc1)c1nc(NC2CCCCCCCCCCC2)ns1` [AKC 335]: the “Follow-up HTS Run % Run” value is listed as 82%, the “Follow-up HTS Run Visual Score” value was “Dead” and the “Follow-up HTS Run mOD” value was determined as 132 mOD.

Still in this assay, the particulars now being: Initial HTS run.
Regarding `CN(Cc1ccccc1)c1nc(NCc2ccccc2)ns1` [AKC 328], the “Initial HTS Run % Run” value worked out at 98% and the “Initial HTS Run mOD” value was 108 mOD.

Consider `CN(CCc1ccccc1)c1nc(NC2CCCCCCCCCCC2)ns1` [AKC 335], for which the “Initial HTS Run % Run” value was 104%, the “Initial HTS Run Visual Score” value is given as “Dead” and the “Initial HTS Run mOD” value is on record as 114 mOD.

Staying with this assay, now noted: dose response, dilution V1, day 5.
Take `CN(Cc1ccccc1)c1nc(NCc2ccccc2)ns1` [AKC 328]: the “5 Day Visual Score V1” value was “Dead”.

`CN(CCc1ccccc1)c1nc(NC2CCCCCCCCCCC2)ns1` [AKC 335]: the “5 Day Visual Score V1” value is recorded as “Dead”.

The assay is the same for the next values; noted with them: dose response, dilution V2, day 5.
In the case of `CN(Cc1ccccc1)c1nc(NCc2ccccc2)ns1` [AKC 328], the “5 Day Visual Score V2” value was “L1”.

As to `CN(CCc1ccccc1)c1nc(NC2CCCCCCCCCCC2)ns1` [AKC 335], the “5 Day Visual Score V2” value is “Dead”.

Still in this assay, the particulars now being: dose response, dilution V3, day 5.
For the compound `CN(CCc1ccccc1)c1nc(NC2CCCCCCCCCCC2)ns1` [AKC 335], the “5 Day Visual Score V3” value is “Dead”.

Still in this assay, the particulars now being: dose response, dilution V5, day 5.
As for `CN(Cc1ccccc1)c1nc(NCc2ccccc2)ns1` [AKC 328], the “5 Day Visual Score V5” value was “˜B (moderate broodsize (100-250 progeny))”.

The assay is the same for the next values; noted with them: dose response, dilution V6, day 5.
Consider `CN(CCc1ccccc1)c1nc(NC2CCCCCCCCCCC2)ns1` [AKC 335], for which the “5 Day Visual Score V6” value is “OK (no effect (˜1000+ progeny))”.
